Experiment [1] has as its target T1, Dickkopf WNT-signaling pathway inhibitor 1 (Rattus norvegicus, UniProt A6I0Z0).
T1 sequence (A6I0Z0 whole entry): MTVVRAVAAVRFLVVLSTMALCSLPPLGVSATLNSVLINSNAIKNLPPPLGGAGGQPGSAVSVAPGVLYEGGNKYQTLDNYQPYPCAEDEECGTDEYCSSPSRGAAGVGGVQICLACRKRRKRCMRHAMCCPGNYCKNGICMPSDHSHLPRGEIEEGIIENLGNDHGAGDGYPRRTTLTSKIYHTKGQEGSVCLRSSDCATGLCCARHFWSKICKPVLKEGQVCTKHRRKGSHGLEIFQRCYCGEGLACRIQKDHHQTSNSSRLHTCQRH
Description: Inhibition of biotin-labeled rat recombinant DKK1 assessed as reduction in DKK1 interaction with LRP-6/Fc incubated overnight by chemiluminescence based Alpha-screen assay.

In experiment [2] the target is T2, Dickkopf-related protein 1 (Homo sapiens, UniProt O94907).
T2 sequence (O94907 whole entry): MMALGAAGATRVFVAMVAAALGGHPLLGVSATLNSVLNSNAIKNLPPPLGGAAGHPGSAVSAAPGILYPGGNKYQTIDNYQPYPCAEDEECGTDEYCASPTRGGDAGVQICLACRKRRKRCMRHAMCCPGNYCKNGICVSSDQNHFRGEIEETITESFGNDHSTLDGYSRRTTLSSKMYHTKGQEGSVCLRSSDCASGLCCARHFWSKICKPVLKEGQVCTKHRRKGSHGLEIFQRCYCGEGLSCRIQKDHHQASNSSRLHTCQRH
The experiment in a line: Inhibition of biotin-labeled human recombinant DKK1 assessed as reduction in DKK1 interaction with LRP-6/Fc incubated overnight by chemiluminescence based Alpha-screen assay.

Consider seven molecules from ChEMBL document CHEMBL4417633, “Inhibitory polypeptides specific to WNT inhibitors” (2017).

Where a SMILES comes first, the peptide text is derived from it.

Take `CC[C@H](C)[C@H](NC(=O)[C@H](CC(N)=O)NC(=O)CNC(=O)[C@H](CS)NC(=O)[C@H](CCC(N)=O)NC(=O)[C@H](Cc1ccccc1)NC(=O)[C@H](Cc1ccc(O)cc1)NC(=O)[C@H](CO)NC(=O)[C@H](C)NC(=O)[C@@H]1CCCN1C(=O)[C@@H](N)CS)C(=O)N[C@@H](CC(N)=O)C(=O)N[C@@H](Cc1cnc[nH]1)C(=O)N[C@@H](CS)C(=O)N[C@@H](Cc1ccc(O)cc1)C(=O)N1CCC[C@H]1C(=O)N[C@H](C(=O)N[C@@H](CCC(=O)O)C(=O)N[C@@H](Cc1c[nH]c2ccccc12)C(=O)N[C@@H](CCCNC(=N)N)C(=O)N[C@@H](CS)C(=O)N[C@@H](CC(=O)O)C(=O)NCC(=O)N[C@@H](Cc1ccccc1)C(=O)N[C@@H](CCC(N)=O)C(=O)N[C@@H](CC(=O)O)C(=O)N[C@@H](CS)C(=O)N[C@@H](CC(=O)O)C(=O)N[C@@H](CC(=O)O)C(=O)NCC(=O)N[C@@H](CO)C(=O)N[C@@H](CC(=O)O)C(=O)N[C@@H](CCC(=O)O)C(=O)N[C@@H](Cc1ccc(O)cc1)C(=O)N[C@H](C(=O)N[C@@H](CS)C(=O)N1CCC[C@H]1C(=O)N[C@@H](Cc1ccc(O)cc1)C(=O)N[C@@H](CCCNC(=N)N)C(=O)N[C@H](C(=O)O)[C@@H](C)O)C(C)C)C(C)C` (H-CPASYFQCGNINHCYPVEWRCDGFQDCDDGSDEYVCPYRT-OH): the IC50 in experiment [1] and in experiment [2] was not above 1 nM each time.
In the case of `CSCC[C@H](NC(=O)[C@H](Cc1ccccc1)NC(=O)[C@H](CCC(=O)O)NC(=O)[C@H](Cc1ccc(O)cc1)NC(=O)[C@H](CO)NC(=O)[C@@H]1CCCN1C(=O)[C@@H](N)CS)C(=O)N[C@@H](CS)C(=O)N[C@@H](C)C(=O)N[C@@H](CC(=O)O)C(=O)N[C@@H](CCCCN)C(=O)N[C@@H](CCSC)C(=O)N[C@@H](CS)C(=O)N[C@@H](Cc1ccccc1)C(=O)N1CCC[C@H]1C(=O)N[C@@H](CC(C)C)C(=O)N[C@@H](CC(=O)O)C(=O)N[C@@H](Cc1ccccc1)C(=O)N[C@@H](CC(C)C)C(=O)N[C@@H](CS)C(=O)N[C@@H](CC(=O)O)C(=O)NCC(=O)N[C@@H](CCC(=O)O)C(=O)N[C@@H](CC(N)=O)C(=O)N[C@@H](CC(=O)O)C(=O)N[C@@H](CS)C(=O)N[C@@H](CCC(=O)O)C(=O)N[C@@H](CC(=O)O)C(=O)NCC(=O)N[C@@H](CO)C(=O)N[C@@H](CC(=O)O)C(=O)N[C@@H](CCC(=O)O)C(=O)N[C@@H](CC(=O)O)C(=O)N[C@@H](Cc1ccc(O)cc1)C(=O)N[C@@H](CS)C(=O)N1CCC[C@H]1C(=O)N[C@@H](CO)C(=O)N[C@@H](CCCNC(=N)N)C(=O)N[C@H](C(=O)O)[C@@H](C)O` (H-CPSYEFMCADKMCFPLDFLCDGENDCEDGSDEDYCPSRT-OH), the IC50 in experiment [1] and in experiment [2] was not above 1 nM throughout.
In the case of `CC[C@H](C)[C@H](NC(=O)[C@H](CCCNC(=N)N)NC(=O)[C@H](CS)NC(=O)[C@H](CCC(N)=O)NC(=O)[C@H](Cc1ccccc1)NC(=O)[C@H](Cc1ccc(O)cc1)NC(=O)[C@H](CO)NC(=O)[C@@H](NC(=O)[C@@H]1CCCN1C(=O)[C@@H](N)CS)C(C)C)C(=O)N[C@@H](Cc1ccc(O)cc1)C(=O)N[C@@H](CC(N)=O)C(=O)N[C@@H](Cc1cnc[nH]1)C(=O)N[C@@H](CS)C(=O)N[C@@H](Cc1ccc(O)cc1)C(=O)N1CCC[C@H]1C(=O)N[C@@H](CCSC)C(=O)N[C@@H](CCC(=O)O)C(=O)N[C@@H](Cc1c[nH]c2ccccc12)C(=O)N[C@@H](CCCNC(=N)N)C(=O)N[C@@H](CS)C(=O)N[C@@H](CC(=O)O)C(=O)NCC(=O)N[C@@H](Cc1ccccc1)C(=O)N[C@@H](CCC(=O)O)C(=O)N[C@@H](CC(=O)O)C(=O)N[C@@H](CS)C(=O)N[C@H](C(=O)N[C@@H](CC(=O)O)C(=O)NCC(=O)N[C@@H](CO)C(=O)N[C@@H](CC(=O)O)C(=O)N[C@@H](CCC(=O)O)C(=O)N[C@@H](CCCCN)C(=O)NCC(=O)N[C@@H](CS)C(=O)N1CCC[C@H]1C(=O)N[C@@H](Cc1ccc(O)cc1)C(=O)N[C@@H](CCCNC(=N)N)C(=O)N[C@H](C(=O)O)[C@@H](C)O)C(C)C` (H-CPVSYFQCRIYNHCYPMEWRCDGFEDCVDGSDEKGCPYRT-OH), the IC50 in experiment [1] and in experiment [2] was not above 1 nM in each case.
Consider `CSCC[C@H](NC(=O)[C@@H]1CCCN1C(=O)[C@H](Cc1ccc(O)cc1)NC(=O)[C@H](CS)NC(=O)[C@H](Cc1cnc[nH]1)NC(=O)[C@H](CC(N)=O)NC(=O)[C@H](Cc1cnc[nH]1)NC(=O)[C@H](CC(N)=O)NC(=O)[C@H](CCCNC(=N)N)NC(=O)[C@H](CS)NC(=O)[C@H](CCCNC(=N)N)NC(=O)[C@H](Cc1ccccc1)NC(=O)[C@H](Cc1ccc(O)cc1)NC(=O)[C@H](CO)NC(=O)[C@H](C)NC(=O)[C@@H]1CCCN1C(=O)[C@@H](N)CS)C(=O)N[C@@H](CCC(=O)O)C(=O)N[C@@H](Cc1c[nH]c2ccccc12)C(=O)N[C@@H](CCCNC(=N)N)C(=O)N[C@@H](CS)C(=O)N[C@@H](CC(=O)O)C(=O)NCC(=O)N[C@@H](Cc1ccccc1)C(=O)N[C@@H](CC(=O)O)C(=O)N[C@@H](CC(=O)O)C(=O)N[C@@H](CS)C(=O)N[C@@H](CCC(=O)O)C(=O)N[C@@H](CC(=O)O)C(=O)NCC(=O)N[C@@H](CO)C(=O)N[C@@H](CC(=O)O)C(=O)N[C@@H](CCC(=O)O)C(=O)N[C@@H](CCC(N)=O)C(=O)NCC(=O)N[C@@H](CS)C(=O)N1CCC[C@H]1C(=O)N[C@@H](Cc1ccc(O)cc1)C(=O)N[C@@H](CCCNC(=N)N)C(=O)N[C@H](C(=O)O)[C@@H](C)O` (H-CPASYFRCRNHNHCYPMEWRCDGFDDCEDGSDEQGCPYRT-OH), for which the IC50 in experiment [1] and in experiment [2] was not above 1 nM in each case.
With `CSCC[C@H](NC(=O)[C@@H]1CCCN1C(=O)[C@H](Cc1ccc(O)cc1)NC(=O)[C@H](CS)NC(=O)[C@H](Cc1cnc[nH]1)NC(=O)[C@H](CC(N)=O)NC(=O)[C@H](CC(C)C)NC(=O)[C@H](CC(N)=O)NC(=O)CNC(=O)[C@H](CS)NC(=O)[C@H](CCC(N)=O)NC(=O)[C@H](Cc1ccccc1)NC(=O)[C@H](Cc1ccc(O)cc1)NC(=O)[C@H](CO)NC(=O)[C@H](C)NC(=O)[C@@H]1CCCN1C(=O)[C@@H](N)CS)C(=O)N[C@@H](CCC(=O)O)C(=O)N[C@@H](Cc1c[nH]c2ccccc12)C(=O)N[C@@H](CCCNC(=N)N)C(=O)N[C@@H](CS)C(=O)N[C@@H](CC(=O)O)C(=O)NCC(=O)N[C@@H](Cc1ccccc1)C(=O)N[C@@H](CCC(N)=O)C(=O)N[C@@H](CC(=O)O)C(=O)N[C@@H](CS)C(=O)N[C@H](C(=O)N[C@@H](CC(=O)O)C(=O)NCC(=O)N[C@@H](CO)C(=O)N[C@@H](CC(=O)O)C(=O)N[C@@H](CCC(=O)O)C(=O)N[C@@H](CCCCN)C(=O)NCC(=O)N[C@@H](CS)C(=O)N1CCC[C@H]1C(=O)N[C@@H](Cc1ccc(O)cc1)C(=O)N[C@@H](CCCNC(=N)N)C(=O)N[C@H](C(=O)O)[C@@H](C)O)C(C)C` (H-CPASYFQCGNLNHCYPMEWRCDGFQDCVDGSDEKGCPYRT-OH), the IC50 in experiment [1] and in experiment [2] was not above 1 nM each time.
Regarding `CSCC[C@H](NC(=O)[C@@H]1CCCN1C(=O)[C@H](Cc1ccc(O)cc1)NC(=O)[C@H](CS)NC(=O)[C@H](Cc1cnc[nH]1)NC(=O)[C@H](CC(N)=O)NC(=O)[C@H](CC(C)C)NC(=O)[C@H](Cc1cnc[nH]1)NC(=O)[C@H](CCCNC(=N)N)NC(=O)[C@H](CS)NC(=O)[C@H](CCCNC(=N)N)NC(=O)[C@H](Cc1ccccc1)NC(=O)[C@H](Cc1ccc(O)cc1)NC(=O)[C@H](CO)NC(=O)[C@@H](NC(=O)[C@@H]1CCCN1C(=O)[C@@H](N)CS)C(C)C)C(=O)N[C@@H](CCC(=O)O)C(=O)N[C@@H](Cc1c[nH]c2ccccc12)C(=O)N[C@@H](CCCNC(=N)N)C(=O)N[C@@H](CS)C(=O)N[C@@H](CC(=O)O)C(=O)NCC(=O)N[C@@H](Cc1ccccc1)C(=O)N[C@@H](CC(C)C)C(=O)N[C@@H](CC(=O)O)C(=O)N[C@@H](CS)C(=O)N[C@H](C(=O)N[C@@H](CC(=O)O)C(=O)NCC(=O)N[C@@H](CO)C(=O)N[C@@H](CC(=O)O)C(=O)N[C@@H](CCC(=O)O)C(=O)N[C@@H](CCC(=O)O)C(=O)NCC(=O)N[C@@H](CS)C(=O)N1CCC[C@H]1C(=O)N[C@@H](Cc1ccc(O)cc1)C(=O)N[C@@H](CCCNC(=N)N)C(=O)N[C@H](C(=O)O)[C@@H](C)O)C(C)C` (H-CPVSYFRCRHLNHCYPMEWRCDGFLDCVDGSDEEGCPYRT-OH), the IC50 in experiment [1] and in experiment [2] was not above 1 nM throughout.
For the molecule `CSCC[C@H](NC(=O)[C@@H]1CCCN1C(=O)[C@H](Cc1ccc(O)cc1)NC(=O)[C@H](CS)NC(=O)[C@H](Cc1cnc[nH]1)NC(=O)[C@H](CC(N)=O)NC(=O)[C@H](CCCNC(=N)N)NC(=O)[C@H](CC(N)=O)NC(=O)[C@H](CCCNC(=N)N)NC(=O)[C@H](CS)NC(=O)[C@H](CCCNC(=N)N)NC(=O)[C@H](Cc1ccccc1)NC(=O)[C@H](Cc1ccc(O)cc1)NC(=O)[C@H](CO)NC(=O)[C@H](C)NC(=O)[C@@H]1CCCN1C(=O)[C@@H](N)CS)C(=O)N[C@@H](CCC(=O)O)C(=O)N[C@@H](Cc1c[nH]c2ccccc12)C(=O)N[C@@H](CCCNC(=N)N)C(=O)N[C@@H](CS)C(=O)N[C@@H](CC(=O)O)C(=O)NCC(=O)N[C@@H](Cc1ccccc1)C(=O)N1CCC[C@H]1C(=O)N[C@@H](CC(=O)O)C(=O)N[C@@H](CS)C(=O)N[C@@H](CCC(=O)O)C(=O)N[C@@H](CC(=O)O)C(=O)N[C@@H](C)C(=O)N[C@@H](CO)C(=O)N[C@@H](CC(=O)O)C(=O)N[C@@H](CCC(=O)O)C(=O)N[C@@H](CCCCN)C(=O)NCC(=O)N[C@@H](CS)C(=O)N1CCC[C@H]1C(=O)N[C@@H](Cc1ccc(O)cc1)C(=O)N[C@@H](CCCNC(=N)N)C(=O)N[C@H](C(=O)O)[C@@H](C)O` (H-CPASYFRCRNRNHCYPMEWRCDGFPDCEDASDEKGCPYRT-OH), the IC50 in experiment [1] and in experiment [2] was not above 1 nM in each case.
